Results on 24 compounds are retold here after patent publication US12441703B2, “Carboxamides as modulators of sodium channels” (VERTEX PHARMACEUTICALS INCORPORATED, priority 2019, dated 2025).

pIC50: −log10 of the molar value. Read-outs that look alike come from different tables or passages of the source.

The target in this test is human NaV 1.8 (Homo sapiens, UniProt Q9Y5Y9). The test can be described thus: E-VIPR assay for detecting and measuring NaV inhibition properties. The test is classed as cell-based. The note with it: HEK cells expressing truncated human NaV 1.8, read-out: IC50. The text has this:
Sodium ion channels are voltage-dependent proteins that can be activated by inducing membrane voltage changes by applying electric fields. The electrical stimulation instrument and methods of use, referred to as E-VIPR, are described in International Publication No. WO 2002/008748 A3 and C.-J. Huang et al. Characterization of voltage-gated sodium channel blockers by electrical stimulation and fluorescence detection of membrane potential, 24 Nature Biotech. 439-46 (2006), both of which are incorporated by reference in their entirety. The instrument comprises a microtiter plate handler, an optical system for exciting the coumarin dye while simultaneously recording the coumarin and oxonol emissions, a waveform generator, a current- or voltage-controlled amplifier, and parallel electrode pairs that are inserted into assay plate wells. Under integrated computer control, this instrument passes user-programmed electrical stimulus protocols to cells within the wells of the microtiter plate.
16-20 hours prior to running the assay on E-VIPR, HEK cells expressing a truncated form of human NaV 1.8 with full channel activity were seeded into microtiter 384-well plates, pre-coated with matrigel, at a density of 25,000 cells per well. 2.5-5% KIR2.1 Bacmam virus was added to the final cell suspension before seeding into cell plates. HEK cells were grown in Dulbecco's Modified Eagle's Medium (DMEM) supplemented with 10% FBS (Fetal Bovine Serum, qualified; Sigma #F4135), 1% NEAA (Non-Essential Amino Acids, Gibco #11140), 1% HEPES (Gibco #15630), 1% Pen-Strep (Penicillin-Streptomycin; Gibco #15140) and 5 μg/ml Blasticidin (Gibco #R210-01). Cells were expanded in vented cap cell culture flasks, with 90-95% humidity and 5% CO2.
Compound Loading Buffer (2× concentration): Na/TMA Cl Bath1 Buffer containing HS (omitted in experiments run in the absence of human serum (HS)) 50%, VABSC-1 1 mM, BSA 0.2 mg/ml (in Bath-1), KCl 9 mM, DMSO 0.75%.
• 1) To reach the final concentration in each well, 400 nL of each compound was pre-spotted (in neat DMSO) into polypropylene compound plates at 250× desired final concentration from an intermediate stock concentration of 0.075 mM, in an 11 point dose response, 3-fold dilution, resulting in a top dose of 300 nM final concentration in the cell plate. Vehicle control (neat DMSO), and positive control (an established NaV1.8 inhibitor, 25 μM final in assay in DMSO) were added manually to the outermost columns of each plate respectively. The compound plate was backfilled with 45 μL per well of Compound Loading Buffer resulting in a 250 fold dilution of compound following a 1:1 transfer of compound into the cell plate (see Step 6). Final DMSO concentration for all wells in the assay was 0.625% (0.75% DMSO was supplemented to the Compound Loading Buffer for a final DMSO concentration of 0.625%). This assay dilution protocol was adjusted to enable a higher dose range to be tested in the presence of HS or if the final assay volume was altered. • 2) Hexyl Dye Solution was prepared. • 3) Cell plates were prepared. On the day of the assay, the media was aspirated, and the cells were washed three times with 80 μL of Bath-1 buffer, maintaining 25 μL residual volume in each well. • 4) 25 μL per well of Hexyl Dye Solution was dispensed into the cell plates. The cells were incubated for 20 minutes at room temperature or ambient conditions in darkness. • 5) 45 μL per well of Compound Loading Buffer was dispensed into compound plates. • 6) The cell plates were washed three times with 80 μL per well of Bath-1 Buffer, leaving 25 µL of residual volume. Then 25 μL per well from compound plate was transferred to each cell plate. The mixture was incubated for 30 minutes at room temperature/ambient conditions. • 7) The cell plate containing compound was read on E-VIPR using the current-controlled amplifier to deliver stimulation wave pulses using a symmetrical biphasic waveform. […]

Setting [1] is: E-VIPR assay conducted in the presence of human serum.

By pIC50 is commonly meant the negative decadic logarithm of the IC50, by convention in mol/L.

Chain of human NaV 1.8 (Q9Y5Y9 whole entry, looked up, the tested form may be a part): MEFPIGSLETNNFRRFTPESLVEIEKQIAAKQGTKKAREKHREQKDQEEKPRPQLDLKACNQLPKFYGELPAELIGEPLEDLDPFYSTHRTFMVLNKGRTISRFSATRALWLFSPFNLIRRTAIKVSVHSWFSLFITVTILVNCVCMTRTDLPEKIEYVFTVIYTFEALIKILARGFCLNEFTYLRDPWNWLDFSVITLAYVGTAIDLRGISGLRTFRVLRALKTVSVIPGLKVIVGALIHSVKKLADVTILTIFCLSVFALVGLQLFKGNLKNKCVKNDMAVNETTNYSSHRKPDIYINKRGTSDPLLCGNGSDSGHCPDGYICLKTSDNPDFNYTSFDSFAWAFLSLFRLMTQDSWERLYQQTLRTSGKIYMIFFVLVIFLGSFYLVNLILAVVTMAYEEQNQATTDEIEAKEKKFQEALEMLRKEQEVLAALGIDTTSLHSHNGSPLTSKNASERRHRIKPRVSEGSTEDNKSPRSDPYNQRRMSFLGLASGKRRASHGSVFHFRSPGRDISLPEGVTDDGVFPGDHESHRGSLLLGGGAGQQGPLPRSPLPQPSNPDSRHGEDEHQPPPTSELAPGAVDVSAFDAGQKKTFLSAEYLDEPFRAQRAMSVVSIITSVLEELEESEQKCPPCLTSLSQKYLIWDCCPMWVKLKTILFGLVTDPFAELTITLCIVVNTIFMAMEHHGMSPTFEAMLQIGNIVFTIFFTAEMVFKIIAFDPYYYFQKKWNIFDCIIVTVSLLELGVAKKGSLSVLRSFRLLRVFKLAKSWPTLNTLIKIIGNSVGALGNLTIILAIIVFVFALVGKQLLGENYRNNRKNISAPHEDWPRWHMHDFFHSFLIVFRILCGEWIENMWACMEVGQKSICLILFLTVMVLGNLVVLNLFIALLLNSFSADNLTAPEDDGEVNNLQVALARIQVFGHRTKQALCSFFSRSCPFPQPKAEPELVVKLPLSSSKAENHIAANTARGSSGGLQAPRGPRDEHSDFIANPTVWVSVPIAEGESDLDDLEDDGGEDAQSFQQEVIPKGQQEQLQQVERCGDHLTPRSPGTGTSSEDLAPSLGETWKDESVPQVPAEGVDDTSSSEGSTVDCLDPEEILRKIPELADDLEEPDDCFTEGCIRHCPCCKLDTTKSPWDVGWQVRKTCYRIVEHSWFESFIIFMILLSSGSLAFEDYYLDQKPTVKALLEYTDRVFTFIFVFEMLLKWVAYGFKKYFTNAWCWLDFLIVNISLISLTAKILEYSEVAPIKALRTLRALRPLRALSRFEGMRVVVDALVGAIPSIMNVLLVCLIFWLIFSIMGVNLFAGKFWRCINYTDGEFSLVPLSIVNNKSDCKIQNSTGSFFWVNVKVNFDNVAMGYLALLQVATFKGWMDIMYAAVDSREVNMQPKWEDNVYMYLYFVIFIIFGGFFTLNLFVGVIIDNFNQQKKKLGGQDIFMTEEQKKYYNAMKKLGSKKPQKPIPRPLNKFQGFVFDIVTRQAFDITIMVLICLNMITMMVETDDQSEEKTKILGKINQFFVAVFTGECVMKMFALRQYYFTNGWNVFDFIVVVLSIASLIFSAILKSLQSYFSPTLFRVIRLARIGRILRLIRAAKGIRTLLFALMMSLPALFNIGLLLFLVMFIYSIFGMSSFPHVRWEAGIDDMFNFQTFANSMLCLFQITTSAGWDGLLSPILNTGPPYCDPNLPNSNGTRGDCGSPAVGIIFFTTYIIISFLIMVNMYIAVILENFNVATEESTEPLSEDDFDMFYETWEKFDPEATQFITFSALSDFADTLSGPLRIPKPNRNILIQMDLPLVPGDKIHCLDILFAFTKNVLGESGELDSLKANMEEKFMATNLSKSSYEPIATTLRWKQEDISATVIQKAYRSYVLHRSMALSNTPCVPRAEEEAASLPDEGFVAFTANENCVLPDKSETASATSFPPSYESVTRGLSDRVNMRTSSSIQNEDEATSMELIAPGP

For `COc1cc(F)ccc1-c1ccc(C(F)(F)F)cc1C(=O)Nc1ccc(F)c(C(N)=O)c1` [Compound 253, N-(3-carbamoyl-4-fluoro-phenyl)-2-(4-fluoro-2-methoxy-phenyl)-5-(trifluoromethyl)benzamide], the pIC50 under setting [1] was below 5.52.
The same measure, in the same setting: to `COc1cc(OC(F)(F)F)ccc1Oc1ccc(F)c(F)c1C(=O)Nc1cc(C(N)=O)ncc1C` [Compound 260, 4-[[2,3-difluoro-6-[2-methoxy-4-(trifluoromethoxy)phenoxy]benzoyl]amino]-5-methyl-pyridine-2-carboxamide] belongs 7.18; to `COc1cc(OC(F)(F)F)ccc1Oc1cc(-c2ccc(C(C)(C)C)cc2)cc(F)c1C(=O)Nc1ccnc(C(N)=O)c1` [Compound 172], 7.30; to `[2H]C([2H])([2H])Oc1cc(OC(F)(F)F)ccc1Oc1cc(-c2ccccc2C(F)(F)F)cc(F)c1C(=O)Nc1ccnc(C(N)=O)c1` [Compound 95, 4-[[2-fluoro-6-[2-(trideuteriomethoxy)-4-(trifluoromethoxy)phenoxy]-4-[2-(trifluoromethyl)phenyl]benzoyl]amino]pyridine-2-carboxamide], 6.85.
Still for that read-out and setting: the value for `COc1cc(OC(F)(F)F)ccc1Oc1ccc(Cl)c(F)c1C(=O)Nc1cc(C(N)=O)[n+]([O-])cc1C` [Compound 268, 4-[[3-chloro-2-fluoro-6-[2-methoxy-4-(trifluoromethoxy)phenoxy]benzoyl]amino]-5-methyl-1-oxido-pyridin-1-ium-2-carboxamide] was 7.55.
Consider `COc1cc(OC(F)(F)F)ccc1Oc1cc(OC)c(C)c(F)c1C(=O)Nc1ccnc(C(N)=O)c1` [Compound 362, 4-[[2-fluoro-4-methoxy-6-[2-methoxy-4-(trifluoromethoxy)phenoxy]-3-methyl-benzoyl]amino]pyridine-2-carboxamide], for which the pIC50 (E-VIPR assay conducted in the absence of human serum (compounds marked *)) was 8.70.
On to `COc1cc(OC(F)(F)F)ccc1Oc1ccc(C(F)(F)F)c(C2CC2)c1C(=O)Nc1ccnc(C(N)=O)c1` [Compound 281, 4-[[2-Cyclopropyl-6-[2-Methoxy-4-(Trifluoromethoxy)Phenoxy]-3-(Trifluoromethyl)Benzoyl]Amino]Pyridine-2-Carboxamide], for which, under setting [1], the pIC50 is 6.89.
As for `COc1cc(C)cc(OC)c1Oc1ccc(C(F)(F)F)c(F)c1C(=O)Nc1ccnc(C(N)=O)c1` [Compound 45, 4-[[6-(2,6-dimethoxy-4-methyl-phenoxy)-2-fluoro-3-(trifluoromethyl)benzoyl]amino]pyridine-2-carboxamide], the pIC50 under setting [1] is below 5.52.
Still for that read-out and setting: the value for `COc1cc(OC(F)(F)F)ccc1Oc1cc2c(c(F)c1C(=O)Nc1ccnc(C(N)=O)c1)OCCO2` [Compound 1035] was 7.77; that for `COc1cc(OC(F)(F)F)ccc1Oc1cc(F)c(F)c(F)c1C(=O)Nc1cnc(C(N)=O)nc1` [Compound 262, 5-[[2,3,4-trifluoro-6-[2-methoxy-4-(trifluoromethoxy)phenoxy]benzoyl]amino]pyrimidine-2-carboxamide] was 7.30; that for `COc1cc(OC(F)(F)F)ccc1Oc1cc(C(F)(F)F)nc(OC)c1C(=O)Nc1cc(C(N)=O)ncc1C` [Compound 272, N-(2-carbamoyl-5-methyl-4-pyridyl)-2-methoxy-4-[2-methoxy-4-(trifluoromethoxy)phenoxy]-6-(trifluoromethyl)pyridine-3-carboxamide] was 7.05.
On to `Cc1cc(OC(F)(F)F)cc(Oc2ccc(OC(F)(F)F)cc2Cl)c1C(=O)Nc1ccc(C(N)=O)nc1` [Compound 243, 5-[[2-[2-chloro-4-(trifluoromethoxy)phenoxy]-6-methyl-4-(trifluoromethoxy)benzoyl]amino]pyridine-2-carboxamide], for which the pIC50 under setting [1] is 5.73.
The same measure, in the same setting: the value for `[2H]C([2H])([2H])Oc1cc(OC(F)(F)F)ccc1Oc1cc(C2=CCOCC2)cc(F)c1C(=O)Nc1ccnc(C(N)=O)c1` [Compound 1005, 4-[[4-(3,6-dihydro-2H-pyran-4-yl)-2-fluoro-6-[2-(trideuteriomethoxy)-4-(trifluoromethoxy)phenoxy]benzoyl]amino]pyridine-2-carboxamide] was 6.92; that for `Cc1c(C(F)(F)F)ccc(Oc2ccc(OC(C)C)c(Cl)c2)c1C(=O)Nc1ccnc(C(N)=O)c1` [Compound 124, 4-[[6-(3-chloro-4-isopropoxy-phenoxy)-2-methyl-3-(trifluoromethyl)benzoyl]amino]pyridine-2-carboxamide] was 7.80.
Regarding `COc1cc(OC(F)(F)F)ccc1Oc1cc(C2CCC(C(C)(C)C)CC2)cc(F)c1C(=O)Nc1ccnc(C(N)=O)c1` (single isomer, unassigned) [169 (second diastereomer), 4-[[4-(4-tert-butylcyclohexyl)-2-fluoro-6-[2-methoxy-4-(trifluoromethoxy)phenoxy]benzoyl]amino]pyridine-2-carboxamide], the pIC50 under setting [1] was 7.68.
Still for that read-out and setting: the value for `COc1ccc(Cl)cc1Oc1ccc(C(F)(F)F)c(OC)c1C(=O)Nc1ccnc(C(N)=O)c1` [Compound 54, 4-[[6-(5-chloro-2-methoxy-phenoxy)-2-methoxy-3-(trifluoromethyl)benzoyl]amino]pyridine-2-carboxamide] was 6.29; that for `COc1cc(Oc2ccc(F)c(F)c2OC)c(C(=O)Nc2ccc(C(N)=O)nc2)c(F)c1C(F)(F)F` [Compound 381, 5-[[6-(3,4-difluoro-2-methoxy-phenoxy)-2-fluoro-4-methoxy-3-(trifluoromethyl)benzoyl]amino]pyridine-2-carboxamide] was 7.80.
Same read-out and setting: to `NC(=O)c1cc(NC(=O)c2c(Oc3ccc(Cl)cc3F)ccc(C(F)(F)F)c2F)ccn1` [Compound 51, 4-[[6-(4-chloro-2-fluoro-phenoxy)-2-fluoro-3-(trifluoromethyl)benzoyl]amino]pyridine-2-carboxamide] belongs 6.70; to `Cc1c(C(F)(F)F)ccc(Oc2ccc(OC(F)(F)F)c(Cl)c2)c1C(=O)Nc1ccnc(C(N)=O)c1` [Compound 138, 4-[[6-[3-chloro-4-(trifluoromethoxy)phenoxy]-2-methyl-3-(trifluoromethyl)benzoyl]amino]pyridine-2-carboxamide], 7.70; to `Cc1c(Oc2ccc(C(F)(F)F)c(F)c2C(=O)Nc2ccnc(C(N)=O)c2)ccc(OC(F)(F)F)c1F` [Compound 293, 4-[[2-Fluoro-6-[3-Fluoro-2-Methyl-4-(Trifluoromethoxy)Phenoxy]-3-(Trifluoromethyl)Benzoyl]Amino]Pyridine-2-Carboxamide], 8.41.
On to `Cc1c(C(F)(F)F)ccc(Oc2ccc(F)c(F)c2)c1C(=O)Nc1ccnc(C(N)=O)c1` [Compound 126, 4-[[6-(3,4-difluorophenoxy)-2-methyl-3-(trifluoromethyl)benzoyl]amino]pyridine-2-carboxamide], for which, under setting [1], the negative-log IC50 (pIC50) is 6.74.
Still for that read-out and setting: to `COc1cc(OC(F)(F)F)ccc1Oc1ccc(C(F)(F)F)c(OCCN(C)C)c1C(=O)Nc1ccnc(C(N)=O)c1` [Compound 1027] belongs below 5.52.
As to `COc1cc(OC(F)(F)F)ccc1Oc1cc(C2CCC(C(C)(C)C)CC2)cc(F)c1C(=O)Nc1ccnc(C(N)=O)c1` (single isomer, unassigned) [169 (first diastereomer), 4-[[4-(4-tert-butylcyclohexyl)-2-fluoro-6-[2-methoxy-4-(trifluoromethoxy)phenoxy]benzoyl]amino]pyridine-2-carboxamide], the pIC50 under setting [1] is 7.96.
Turning to `CC(C)(C)c1cc(Cc2ccc(F)c(F)c2)c(C(=O)Nc2ccnc(C(N)=O)c2)cn1` [Compound 350, 6-tert-butyl-N-(2-carbamoyl-4-pyridyl)-4-[(3,4-difluorophenyl)methyl]pyridine-3-carboxamide], the pIC50 under setting [1] is below 5.52.
